According to patent publication EP0066406A1, “Beta-lactam antibiotics” (BEECHAM GROUP PLC, priority 1981, dated 1982):
Read-outs that look alike come from different tables or passages of the source.

Key:
Assay in all cases: MIC determination (agar/broth)
Type in all cases: cell-based
E. coli ESS = settings: Escherichia coli, AGAR
E. coli JT 4 = settings: Escherichia coli, JT4, AGAR
E. coli JT 425 = settings: Escherichia coli, JT425, AGAR
E. coli NCTC 10418 = tested on: E. coli NCTC 10418
[1] = tested on: Ps. aeruginosa NCTC 10662; settings: Pseudomonas aeruginosa
Ps. aeruginosa Dalgleish = settings: Pseudomonas aeruginosa; AGAR; Ps. aeruginosa Dalgleish 10^-2
S. marcescens US 32 = settings: Serratia marcescens, US32, AGAR
K. aerogenes A = settings: Klebsiella aerogenes
E. cloacae N1 = settings: Enterobacter cloacae, AGAR
P. mirabilis C 977 = settings: Proteus mirabilis, C977, AGAR
P. mirabilis 889 = settings: Proteus mirabilis, AGAR
P. morganii = settings: Morganella morganii, AGAR
P. rettgeri = settings: Providencia rettgeri, AGAR
B. subtilis = settings: Bacillus subtilis, AGAR
S. aureus Oxford = tested on: S. aureus Oxford
S. aureus Russell = tested on: S. aureus Russell
N. catarrhalis 1502 = settings: AGAR
S. faecalis I = settings: Enterococcus faecalis, AGAR
S. pyogenes CN 10 = settings: Streptococcus pyogenes, CN10, AGAR
[2] = Staphylococcus aureus, AGAR, read-out: MIC

For CCN1CCN(C(=O)NC(C(=O)N[C@@H]2C(=O)N3[C@@H]2SC(C)(C)[C@@H]3C(=O)O)c2csc(N)n2)C(=O)C1=O (mixture of isomers) [Example 1, 6-[DL-a-(4-Ethyl-2,3-dioxopiperazin-l-carbonylamino)-2-aminothiazol-4-acetamido]penicillanic acid], which MIC (E. coli ESS) is on record?
The MIC was less than 0.02 µg/mL.

And the MIC (E. coli JT 4)?
The MIC was greater than 100 µg/mL.

What about the MIC (E. coli JT 425) of the same molecule?
Its MIC is 25 µg/mL.

And the MIC (E. coli NCTC 10418; BROTH)?
Its MIC is 1.0 µg/mL.

What about the MIC (E. coli NCTC 10418; Escherichia coli, NCTC10418, AGAR, read-out: MIC) of the same molecule?
Its MIC is 1 µg/mL.

What about the MIC ([1]; NCTC10662, AGAR, Ps. aeruginosa NCTC 10662) of the same molecule?
Its MIC is 5 µg/mL.

What about the MIC ([1]; NCTC10662, AGAR, Ps. aeruginosa NCTC 10662 10^-2) of the same molecule?
Its MIC is 2.5 µg/mL.

And the MIC ([1]; NCTC10662, BROTH, Ps. aeruginosa NCTC 10662)?
Its MIC is 10 µg/mL.

What about the MIC ([1]; NCTC10662, BROTH, Ps. aeruginosa NCTC 10662 10^-2) of the same molecule?
Its MIC is 25 µg/mL.

And the MIC (Ps. aeruginosa Dalgleish)?
The MIC was greater than 100 µg/mL.

And the MIC (S. marcescens US 32)?
The MIC was 2.5 µg/mL.

And the MIC (K. aerogenes A; AGAR)?
The MIC was 10 µg/mL.

What about the MIC (K. aerogenes A; BROTH) of the same molecule?
Its MIC is 25 µg/mL.

What about the MIC (E. cloacae N1) of the same molecule?
The MIC was 0.5 µg/mL.

And the MIC (P. mirabilis C 977)?
Its MIC is 0.2 µg/mL.

And the MIC (P. mirabilis 889)?
The MIC was greater than 100 µg/mL.

And the MIC (P. morganii)?
Its MIC is 0.5 µg/mL.

What about the MIC (P. rettgeri) of the same molecule?
The MIC was 2.5 µg/mL.

And the MIC (B. subtilis)?
The MIC was 2.5 µg/mL.

And the MIC (S. aureus Oxford; BROTH)?
The MIC was 1.0 µg/mL.

What about the MIC (S. aureus Oxford; [2]) of the same molecule?
The MIC was 1 µg/mL.

And the MIC (S. aureus Russell; BROTH)?
The MIC was 100 µg/mL.

And the MIC (S. aureus Russell; [2])?
The MIC was 100 µg/mL.

And the MIC (N. catarrhalis 1502)?
Its MIC is less than 0.02 µg/mL.

What about the MIC (S. faecalis I) of the same molecule?
The MIC was 25 µg/mL.

And the MIC (S. pyogenes CN 10)?
Its MIC is 0.1 µg/mL.
